{
  "source": "patent US9968649B2",
  "about": "“Vasopressin formulations for use in treatment of hypotension” (Par Pharmaceutical, Inc., priority 2015, dated 2018)",
  "origin": "cited, not measured here",
  "tested_on": "healthy subjects",
  "settings": "cited from earlier work",
  "data": [
    {"smiles": "NS(=O)(=O)c1cc(C(=O)O)c(NCc2ccco2)cc1Cl", "note": "[Furosemide]", "values": [
      {"measurement": "increase of urine flow", "setting": "co-administered with exogenous vasopressin, healthy subjects", "result": 9, "unit": "fold"}
    ]},
    {"smiles": "FC(F)(F)C(Cl)Br", "note": "(stereo not shown) [Halothane]", "values": [
      {"measurement": "impact on exposure to endogenous vasopressin", "setting": "in vivo", "result": "do not impact exposure"}
    ]},
    {"smiles": "COc1ccc2c(c1)c(CC(=O)O)c(C)n2C(=O)c1ccc(Cl)cc1", "note": "[Indomethacin]", "values": [
      {"measurement": "time to offset for vasopressin's effect on peripheral vascular resistance and cardiac output", "setting": "co-administered with vasopressin, healthy subjects", "result": "more than doubles"}
    ]},
    {"smiles": "CC[N+](CC)(CC)CC", "note": "[tetra-ethylammonium]", "values": [
      {"measurement": "increase of the pressor effect of vasopressin", "setting": "healthy subjects", "result": 20, "unit": "%"}
    ]}
  ]
}
